Data set [1] concerns w794 DNA, 5'-AATTA high affinity site. The experiment in a line: Relative rate of DNA alkylation at the w794 5'-AATTA high affinity site. The data set is classed as biochemical, SV40. As to conditions: 10^-6 M, 25° C. As for the experimental part:
Rate of DNA Alkylation. The relative rates of DNA alkylation for the natural enantiommers of CCBI-TMI (35) and CCBI-indole2 (37) versus those of the corresponding CBI and MCBI agents were measured at the single high affinity site in w794, 5'-AATTA. The relative rates earlier studies of DNA alkylation for MCBI-TMI, CBI-TMI, and duocarmycin SA were determined to be quite similar at 4° C., 1.8:1.0:0.9, respectively. […] In prior studies, we have highlighted similar observations with agents that span a much larger range of relative reactivities.
The DNA alkylation selectivity and efficiency of the natural enantiomers of 304-307 were compared with that of 1 in w794 DNA. […] These trends in the overall efficiency of DNA alkylation parallel the relative trends in cytotoxic potency.
(§1) DNA Alkylation Relative Rate of (+)-CCBI-TMI (35), (+)-CBI-TMI, and (+)-MCBI-TMI. Following the procedure detailed above, Eppendorf tubes containing 5' end-labeled w794 DNA (9 μL) in TE buffer (pH 7.5) were treated with (+)-CCBI-TMI (35), (+)-CBI-TMI, or (+)-MCBI-TMI (1 μL, 10^-6 M in DMSO). The solutions were mixed and incubated at 25° C. for 2, 4, 6, 9, 12, 15, and 24 h, respectively. Subsequent isolation of the alkylated DNA by EtOH precipitation, resuspension in TE buffer (10 μL, pH 7.5), thermolysis (30 min, 100° C.), PAGE, and autoradiography were conducted as detailed above. Relative rates for alkylation at the w794 high-affinity 5'-AATTA site were derived from the slopes of the plots of percent integrated optical density (IOD) of the high-affinity alkylation cleavage bands versus time.
as §1, with “(+)-CCBI-indole2 (37), (+)-CBI-indole2,” for “(+)-CCBI-TMI (35), (+)-CBI-TMI,”, “(+)-MCBI-indole2.” for “(+)-MCBI-TMI.”, “(+)-CCBI-indole2 (37), (+)-CBI-indole2, and (+)-MCBI-indole2” for “(+)-CCBI-TMI (35), (+)-CBI-TMI, or (+)-MCBI-TMI”

The test system is the same in data set [2]. As to conditions: 4° C., earlier studies, 1.8:1.0:0.9; cited from earlier work.
For another data set, the system named is calf thymus DNA. The experiment in a line: DNA alkylation of calf thymus DNA, recovery of unreacted agent. In kind it is biochemical. As to conditions: 37° C., 48-72 h, 1:51 agent:base-pair ratio. The method, then: DNA Alkylation of Calf Thymus DNA. An aliquot of agent (5 μL, 0.01 M in DMSO) was added to a calf thymus DNA solution (0.45 mL, 3.79 mg/mL, 10 mM sodium phosphate, pH 7.0, base-pair:agent=51:1). The DNA-agent mixtures were incubated at 37° C. for 72 h for both enantiomers of 105, 106 and 107 or at 37° C. for 48 h for 108, 109, 110 and 111. For both enantiomers of 105, 106, 108 and 110, the unreacted materials were extracted with EtOAc (0.5 mL×4). The combined extracts were dried and dissolved in EtOAc (0.9 mL) and the quantities of 105, 106, 108, and 110 were determined by UV. Additional extraction with EtOAc (0.5 mL×4) was carried out, and the amounts of combined material were determined by UV. No additional material was recovered. For the ionic agents 107, 109 and 111, the unreacted materials were recovered from the supernatants of EtOH precipitation of the DNA. The EtOH in the supernatant was removed by a stream of N2. The supernatants were diluted to 0.9 mL with H2 O and the recovered quantities of 107, 109, and 111 were determined by UV.
These studies were conducted alongside control reactions conducted in the absence of DNA. An aliquot of agent (5 μL, 0.01 M in DMSO) was added to sodium phosphate buffer (0.45 mL, 10 mM, pH 7.0). The agent-buffer mixtures were incubated at 37° C. for 72 h for both enantiomers of 105, 106 and 107 or at 37° C. for 48 h for 108, 109, 110 and 111. For 105, 106, 108 and 110, the materials were extracted with EtOAc (0.5 mL×4). The combined extracts were dried and dissolved in EtOAc (0.9 mL) and the agent quantities were determined by UV. For the ionic agents 107, 109 and 111, the agent-buffer mixtures were diluted to 0.9 mL with H2 O and their quantities were determined by UV.

Another data set deals with L1210. Description: In vitro cytotoxic activity, L1210. The following applies: L1210.
The test system of the next data set is w794 duplex DNA. The experiment in a line: DNA alkylation selectivity and efficiency within w794 DNA, thermally-induced strand cleavage and PAGE. In kind it is biochemical, SV40. As to conditions: for DNA alkylation, failure to alkylate: 105-107: 37° C., 72 h, up to 10^-2 M, 108 and 110: 10^-3 M or lower. An excerpt: DNA Alkylation Selectivity and Efficiency. The DNA alkylation properties of the agents were examined within w794 duplex DNA, a 144 base-pair segment of duplex DNA for which comparative results are available for related agents. The alkylation site identification and the assessment of the relative selectivity among the available sites were obtained by thermally-induced strand cleavage of the singly 5' end-labeled duplex DNA after exposure to the agents. Following treatment of the end-labeled duplex DNA with a range of agent concentrations, the unbound agent was removed by EtOH precipitation of the DNA. Redissolution of the DNA in aqueous buffer, thermolysis (100° C., 30 min) to induce strand cleavage at the sites of DNA alkylation, denaturing high resolution polyacrylamide gel electrophoresis (PAGE) adjacent to Sanger dideoxynucleotide sequencing standards, and autoradiography led to identification of the DNA cleavage and alkylation sites. The DNA alkylation reaction selectivities observed under the incubation conditions for the agents detailed herein have proven identical to the alkylation selectivities observed with shorter or extended reaction periods or when the reactions were conducted at different temperatures (37 or 4° C., 0.5-7 d). As discussed below, the rates and efficiencies but not final relative efficiencies of DNA alkylation were altered by changing the reaction temperatures.
DNA Alkylation Properties. […] The DNA alkylation reaction was examined within w794 DNA for which comparative results are available for past agents. The alkylation site identification was obtained by thermal strand cleavage of the singly 5' end-labeled duplex DNA after exposure to the agents. Following treatment of the labeled DNA with a range of agent concentrations, the unbound agent was removed by EtOH precipitation of the DNA. Redissolution of the DNA in aqueous buffer, thermolysis at 100° C. (30 min) to induce depurination and strand cleavage at the adenine N3 or guanine N3 minor groove alkylation sites, denaturing high resolution PAGE adjacent to Sanger sequencing standards and autoradiography provided the DNA cleavage and alkylation sites.
DNA Alkylation Studies: selectivity and Efficiency. General procedures, the preparation of singly ^32 P 5' end-labeled double stranded DNA, the agent binding studies, gel electrophoresis, and autoradiography were conducted according to standard procedures. Eppendorf tubes containing the 5' end-labeled DNA (9 μL) in TE buffer (10 mM Tris, 1 mM EDTA, pH 7.5) were treated with the agent in DMSO (1 μL at the specified concentration). The solution was mixed by vortexing and brief centrifugation and subsequently incubated at 4 or 25° C. for 24 h (natural enantiomers) and 25 or 37° C. (unnatural enantiomers) for 72 h. The covalently modified DNA was separated from unbound agent by EtOH precipitation and resuspended in TE buffer (10 μL). The solution of DNA in an Eppendorf tube sealed with parafilm was warmed at 100° C. for 30 min to induce cleavage at the alkylation sites, allowed to cool to 25° C. and centrifuged. Formamide dye (0.03% xylene cyanol FF, 0.03% bromophenol blue, 8.7% Na2 EDTA 250 mM) was added (5 μL) to the supernatant. Prior to electrophoresis, the sample was denatured by warming at 100° C. for 5 min, placed in an icebath, and centrifuged, and the supernatant (3 μL) was loaded directly onto the gel. Sanger dideoxynucleotide sequencing reactions were run as standards adjacent to the reaction samples. Polyacrylamide gel electrophoresis (PAGE) was run on an 8% sequencing gel under denaturing conditions (8 M urea) in TBE buffer (100 mM Tris, 100 mM boric acid, 0.2 mM Na2 EDTA) followed by autoradiography.
DNA Alkylation of w794 DNA. Eppendorf tubes containing the 5'-end labeled DNA (9 μL) in TE buffer (10 mM Tris, 1 mM EDTA, pH 7.2) were treated with the agent in DMSO (1 μL at the specified concentration). […]

SMILES strings stand for the structures. Where “and” joins values, the source holds several entries; their conditions need not be identical. Equal entries are not always repeated. Entries after “also recorded” stand apart in the source; their conditions may differ.

These results are taken from patent US6060608A, “Analogs of CC-1065 and the duocarmycins” (The Scripps Research Institute, priority 1999, dated 2000).

Regarding `COc1cc2cc(C(=O)N3CC4CC45C3=CC(=O)c3ccccc35)[nH]c2c(OC)c1OC` (single isomer, unassigned) [CBI-TMI], the “relative rate of DNA alkylation, TMI series” value in data set [1] worked out at 1.0 ×. Also, the “relative rate of DNA alkylation” value in data set [2] is reported as 1.0.

For `COc1ccc2c(c1)C13CC1CN(C(=O)c1cc4cc(OC)c(OC)c(OC)c4[nH]1)C3=CC2=O` (single isomer, unassigned) [MCBI-TMI], the “relative rate of DNA alkylation, TMI series” value in data set [1] was 1.9 ×. The “relative rate of DNA alkylation” value in data set [2] was 1.8.

In the case of `CSCCCNC(=O)c1csc(-c2csc(CCNC(=O)C(=O)N3CC(CCl)c4c3cc(O)c3ccccc43)n2)n1` (centres unmarked) [compound 105, 3-[2'-(2-(2-(1-Chloromethyl-5-hydroxy-1,2-dihydro-3H-benz[e]indol-3-yl)-1,2-dioxoethyl)aminoethyl)-2,4'-bithiazole-4-carboxamido]propyl Methyl Sulfide], the “DNA alkylation of calf thymus DNA” value in the data set on calf thymus DNA is “recovered nearly quantitatively”. In addition, in the data set on L1210, the “cytotoxic potency in comparison with CBI building block or simple CBI derivatives” value is “approached the cytotoxic potency of 114”.

Take `C[S+]([O-])CCCNC(=O)c1csc(-c2csc(CCNC(=O)C(=O)N3CC(CCl)c4c3cc(O)c3ccccc43)n2)n1` (centres unmarked) [compound 106, 3-[2'-(2-(2-(1-Chloromethyl-5-hydroxy-1,2-dihydro-3H-benz[e]indol-3-yl)-1,2-dioxoethyl)aminoethyl)-2,4'-bithiazole-4-carboxamido]propyl Methyl Sulfoxide]: the “DNA alkylation of calf thymus DNA” value in the data set with calf thymus DNA is listed as “recovered nearly quantitatively”.

`CSCCCNC(=O)c1csc(-c2csc(CCNC(=O)CCC(=O)N3CC(CCl)c4c3cc(O)c3ccccc43)n2)n1` (centres unmarked) [compound 108, 3-[2'-(2-(2-(1-Chloromethyl-5-hydroxy-1,2-dihydro-3H-benz[e]indol-3-yl)-1,4-dioxobutyl)aminoethyl)-2,4'-bithiazole-4-carboxamido]propyl Methyl Sulfide]: the “DNA alkylation, failure to alkylate” value in the data set with w794 duplex DNA is given as “failed to alkylate DNA at concentrations of 10^-3 M or lower; also recorded: no reaction is observed”. In addition, the “DNA alkylation of calf thymus DNA” value in the data set with calf thymus DNA is given as “recovered nearly quantitatively”.

On to `C[S+](C)CCCNC(=O)c1csc(-c2csc(CCNC(=O)CCC(=O)N3CC(CCl)c4c3cc(O)c3ccccc43)n2)n1.[I-]` (centres unmarked) [compound 109, 3-[2'-(2-(4-(1-Chloromethyl-5-hydroxy-1,2-dihydro-3H-benz[e]indol-3-yl)-1,4-dioxobutyl)aminoethyl)-2,4'-bithiazole-4-carboxamido]propyl Dimethyl Sulfonium Iodide], for which, in the data set on w794 duplex DNA, the “DNA alkylation properties, comparison in words” value is “only slightly more effective than 116”; the “DNA alkylation sequence selectivity” value was 5'-AA, 5'-TA and identical to that of N-BOC-CBI (123) and 116. In the data set with calf thymus DNA, the “DNA alkylation of calf thymus DNA” value was “perceptible covalent attachment to the calf thymus DNA”.

Turning to `CSCCCNC(=O)c1csc(-c2csc(CCNC(=O)[C@@H](NC(=O)CCC(=O)N3CC(CCl)c4c3cc(O)c3ccccc43)[C@@H](C)O)n2)n1` (stereo partly drawn) [compound 110, 3-[2'-(2-((4-(1-Chloromethyl-5-hydroxy-1,2-dihydro-3H-benz[e]indol-3-yl)-1,4-dioxobutyl)-L-threonyl)aminoethyl)-2,4'-bithiazole-4-carboxamido]propyl Methyl Sulfide], the “DNA alkylation, failure to alkylate” value with w794 duplex DNA is “failed to alkylate DNA at concentrations of 10^-3 M or lower”. Besides, the “DNA alkylation of calf thymus DNA” value in the data set on calf thymus DNA is listed as “recovered nearly quantitatively”.

Turning to `C[C@@H](O)[C@H](NC(=O)CCC(=O)N1CC(CCl)c2c1cc(O)c1ccccc21)C(=O)NCCc1nc(-c2nc(C(=O)NCCC[S+](C)C)cs2)cs1` (stereo partly drawn) [compound 111, 3-[2'-(2-((4-(1-Chloromethyl-5-hydroxy-1,2-dihydro-3H-benz[e]indol-3-yl)-1,4-diooxobutyl)-L-threonyl)aminoethyl)-2,4'-bithiazole-4-carboxamido]propyl Dimethyl Sulfonium Iodide], in the data set with w794 duplex DNA, the “DNA alkylation properties, comparison in words” value was “only slightly more effective than 116”; the “DNA alkylation sequence selectivity” value is 5'-AA, 5'-TA and identical to that of N-BOC-CBI (123) and 116. In the data set on calf thymus DNA, the “DNA alkylation of calf thymus DNA” value is listed as “perceptible covalent attachment to the calf thymus DNA”.
